Data taken from US20240423207A1, “PICOLINAMIDE COMPOUNDS WITH FUNGICIDAL ACTIVITY” (CORTEVA AGRISCIENCE LLC, priority 2014, published 2024).
Read-outs that look alike come from different tables or passages of the source.

Legend:
Type in all cases: in vivo
[1] = test system: Magnaporthe grisea; Anamorph: Pyricularia oryzae; experiment: whole plant or invertebrate; conditions: 24 h, read-out: PYRIOR 1 DP disease control
[2] = test system: Glomerella lagenarium; Anamorph: Colletotrichum lagenarium; experiment: Cucumber Anthracnose (COLLLA) fungicidal activity on cucumber seedlings; conditions: Colletotrichum orbiculare, 24 h, 1 Day Protectant, read-out: COLLLA 1 DP disease control
Description: Technical grades of materials were dissolved in acetone, which were then mixed with nine volumes of water (H2O) containing 110 ppm Triton X-100. The fungicide solutions were applied onto wheat seedlings using an automated booth sprayer to run-off. All sprayed plants were allowed to air dry prior to further handling. All fungicides were evaluated using the aforementioned method for their activity vs. all target diseases, unless stated otherwise. Wheat leaf blotch and brown rust activity were also evaluated using track spray applications, in which case the fungicides were formulated as EC formulations, containing 0.1% Trycol 5941 in the spray solutions. Wheat plants (variety Yuma) were grown from seed in a greenhouse in 50% mineral soil/50% soil-less Metro mix until the first leaf was fully emerged, with 7-10 seedlings per pot. These plants were inoculated with an aqueous spore suspension of Septoria tritici either prior to or after fungicide treatments. After inoculation the plants were kept in 100% relative humidity (one day in a dark dew chamber followed by two to three days in a lighted dew chamber at 20° C.) to permit spores to germinate and infect the leaf. The plants were then transferred to a greenhouse set at 20° C. for disease to develop. When disease symptoms were fully expressed on the 1st leaves of untreated plants, infection levels were assessed on a scale of 0 to 100 percent disease severity. Percent disease control was calculated using the ratio of disease severity on treated plants relative to untreated plants. Example J: Evaluation of Fungicidal Activity: Cucumber Anthracnose (Glomerella lagenarium; Anamorph: Colletotrichum lagenarium; Bayer code COLLLA) Cucumber seedlings (variety Bush Pickle) were propagated in soil-less Metro mix, with each pot having one plant, and used in the test when 12 to 14 days old. Test plants were inoculated with an aqueous spore suspension of Colletotrichum lagenarium 24 hr after fungicide treatments. After inoculation the plants were kept in a dew room at 22° C. with 100% relative humidity for 48 hr to permit spores to germinate and infect the leaf. The plants were then transferred to a growth room set at 22° C. for disease to develop. Fungicide formulation, application and disease assessment on the sprayed leaves followed the procedures as described in the Example A.

[3] = test system: Mycosphaerella graminicola; Anamorph: Septoria tritici; experiment: Leaf Blotch of Wheat (SEPTTR) fungicidal activity on wheat seedlings; conditions: Zymoseptoria tritici, Low Volume, 121.5 g/H
Procedure, shortened: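 Compounds in acetone were diluted with nine volumes of water containing 110 ppm Triton X-100, or as EC formulations with 0.1% Trycol 5941 for track spray. They were sprayed on first-leaf Yuma wheat seedlings inoculated with S. tritici before or after treatment. Plants spent 1 day dark and 2–3 days lit at 100% RH, 20 °C. Severity (0–100%) was scored once untreated plants were fully diseased; control was computed relative to untreated plants.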

[4] = 24 h, 1 Day Protectant, read-out: SEPTTR 1DP disease control
[5] = 72 h, 3 Day Curative, read-out: SEPTTR 3DC disease control

COc1ccnc(C(=O)N[C@@H](C)C(=O)O[C@@H](C)C(c2ccccc2)c2ccccc2)c1OC(=O)C(C)C [Cmpd 140]
> 80%: pest or weed control at 100 ppm [1] | pest or weed control at 100 ppm [2] | pest or weed control at 121.5 g/ha [3, 4] | pest or weed control at 121.5 g/ha [3, 5]

COc1ccnc(C(=O)N[C@@H](C)C(=O)O[C@@H](C)C(c2ccc(F)cc2)c2ccc(F)cc2)c1OCOC(C)=O [Cmpd 146]
> 80%: pest or weed control at 100 ppm [1] | pest or weed control at 100 ppm [2] | pest or weed control at 121.5 g/ha [3, 4] | pest or weed control at 121.5 g/ha [3, 5]

COc1ccnc(C(=O)N[C@@H](C)C(=O)O[C@@H](C)C(c2ccccc2)c2ccccc2)c1OC(C)=O [Cmpd 139, (S)-(S)-1,1-diphenylpropan-2-yl 2-(3-acetoxy-4-methoxypicolinamido)propanoate]
> 80%: pest or weed control at 100 ppm [1] | pest or weed control at 100 ppm [2] | pest or weed control at 121.5 g/ha [3, 4] | pest or weed control at 121.5 g/ha [3, 5]

COc1ccnc(C(=O)N[C@@H](C)C(=O)O[C@@H](C)C(c2ccccc2)c2ccccc2)c1OCOC(C)=O [Cmpd 141, (S)-(S)-1,1-diphenylpropan-2-yl 2-(3-(acetoxymethoxy)-4-methoxypicolinamido)propanoate]
> 80%: pest or weed control at 100 ppm [1] | pest or weed control at 100 ppm [2] | pest or weed control at 121.5 g/ha [3, 4] | pest or weed control at 121.5 g/ha [3, 5]

COc1ccnc(C(=O)N[C@@H](C)C(=O)O[C@@H](C)C(c2ccccc2)c2ccccc2)c1OCOC(=O)C(C)C [Cmpd 142, (S)-(S)-1,1-diphenylpropan-2-yl 2-(3-((isobutyryloxy)methoxy)-4-methoxypicolinamido)propanoate]
> 80%: pest or weed control at 100 ppm [1] | pest or weed control at 100 ppm [2] | pest or weed control at 121.5 g/ha [3, 4] | pest or weed control at 121.5 g/ha [3, 5]

COc1ccnc(C(=O)N[C@@H](C)C(=O)O[C@@H](C)C(c2ccc(F)cc2)c2ccc(F)cc2)c1OC(C)=O [Cmpd 145]
> 80%: pest or weed control at 100 ppm [1] | pest or weed control at 100 ppm [2] | pest or weed control at 121.5 g/ha [3, 4] | pest or weed control at 121.5 g/ha [3, 5]

COc1ccnc(C(=O)N[C@@H](C)C(=O)O[C@@H](C)C(c2ccc(Cl)cc2)c2ccc(Cl)cc2)c1OCOC(C)=O [Cmpd 176]
> 80%: pest or weed control at 100 ppm [1] | pest or weed control at 100 ppm [2] | pest or weed control at 121.5 g/ha [3, 4] | pest or weed control at 121.5 g/ha [3, 5]

COc1ccnc(C(=O)N[C@@H](C)C(=O)O[C@@H](C)C(c2ccc(F)cc2F)c2ccc(F)cc2F)c1OCOC(C)=O [Cmpd 148]
> 80%: pest or weed control at 100 ppm [1] | pest or weed control at 100 ppm [2] | pest or weed control at 121.5 g/ha [3, 4] | pest or weed control at 121.5 g/ha [3, 5]

COc1ccnc(C(=O)N[C@@H](C)C(=O)O[C@@H](C)C(c2ccc(Cl)cc2)c2ccc(Cl)cc2)c1OC(C)=O [Cmpd 174]
> 80%: pest or weed control at 100 ppm [1] | pest or weed control at 100 ppm [2] | pest or weed control at 121.5 g/ha [3, 4] | pest or weed control at 121.5 g/ha [3, 5]

COc1ccnc(C(=O)N[C@@H](C)C(=O)O[C@@H](C)C(c2ccc(F)cc2F)c2ccc(F)cc2F)c1OC(C)=O [Cmpd 150]
> 80%: pest or weed control at 100 ppm [1] | pest or weed control at 100 ppm [2] | pest or weed control at 121.5 g/ha [3, 4] | pest or weed control at 121.5 g/ha [3, 5]
